Data as given in patent publication US20130338178A1, “SIRTUIN MODULATORS AS INHIBITORS OF CYTOMEGALOVIRUS” (THE TRUSTEES OF PRINCETON UNIVERSITY, priority 2011, published 2013).
Peptide text beside a SMILES is read from it.

How the values were obtained:
Hst2 = Hst2 (Saccharomyces cerevisiae, UniProt P53686); settings: cited from earlier work
SIRT1 [1] = molecular target: T1, SIRT1 (Homo sapiens, UniProt Q96EB6); settings: cited from earlier work
T1 sequence (Q96EB6 1-747): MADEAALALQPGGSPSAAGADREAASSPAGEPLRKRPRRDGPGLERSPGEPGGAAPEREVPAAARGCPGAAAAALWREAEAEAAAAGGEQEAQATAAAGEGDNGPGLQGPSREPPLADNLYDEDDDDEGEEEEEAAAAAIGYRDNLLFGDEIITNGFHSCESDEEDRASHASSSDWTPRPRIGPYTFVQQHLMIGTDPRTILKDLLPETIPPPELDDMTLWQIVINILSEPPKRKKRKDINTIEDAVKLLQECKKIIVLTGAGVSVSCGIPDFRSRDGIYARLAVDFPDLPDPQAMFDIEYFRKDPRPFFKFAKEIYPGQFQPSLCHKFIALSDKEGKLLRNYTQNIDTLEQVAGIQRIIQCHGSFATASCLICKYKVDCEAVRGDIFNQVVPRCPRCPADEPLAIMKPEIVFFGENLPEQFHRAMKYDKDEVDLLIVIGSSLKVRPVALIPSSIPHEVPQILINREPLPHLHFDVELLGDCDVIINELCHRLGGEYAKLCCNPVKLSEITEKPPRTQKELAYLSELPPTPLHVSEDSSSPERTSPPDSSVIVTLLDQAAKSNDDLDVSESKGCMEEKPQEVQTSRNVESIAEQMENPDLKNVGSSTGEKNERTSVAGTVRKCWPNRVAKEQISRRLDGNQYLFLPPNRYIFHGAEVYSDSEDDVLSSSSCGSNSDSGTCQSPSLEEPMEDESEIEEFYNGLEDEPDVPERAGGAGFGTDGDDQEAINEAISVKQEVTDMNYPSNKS

sirtuin = molecular target: T2, sirtuin (Homo sapiens, UniProt Q8IXJ6); settings: cited from earlier work
T2 sequence (Q8IXJ6 2-389 limits assumed): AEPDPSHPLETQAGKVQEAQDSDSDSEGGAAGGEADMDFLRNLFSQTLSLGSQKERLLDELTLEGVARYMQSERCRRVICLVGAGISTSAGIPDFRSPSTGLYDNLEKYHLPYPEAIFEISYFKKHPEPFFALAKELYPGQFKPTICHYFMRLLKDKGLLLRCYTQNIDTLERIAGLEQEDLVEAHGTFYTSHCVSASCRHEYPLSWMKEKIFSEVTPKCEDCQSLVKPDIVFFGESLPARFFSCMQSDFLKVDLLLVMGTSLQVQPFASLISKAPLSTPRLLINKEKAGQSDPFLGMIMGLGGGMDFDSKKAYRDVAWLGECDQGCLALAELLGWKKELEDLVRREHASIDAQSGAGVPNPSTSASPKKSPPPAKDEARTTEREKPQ

SIRT1 [2] = molecular target: T1, SIRT1; settings: cited from earlier work; remark: listed apart in the source
Sirt6 = Sirt6 (Homo sapiens, UniProt Q8N6T7); settings: cited from earlier work
Sequence of Sirt6 (Q8N6T7 whole entry): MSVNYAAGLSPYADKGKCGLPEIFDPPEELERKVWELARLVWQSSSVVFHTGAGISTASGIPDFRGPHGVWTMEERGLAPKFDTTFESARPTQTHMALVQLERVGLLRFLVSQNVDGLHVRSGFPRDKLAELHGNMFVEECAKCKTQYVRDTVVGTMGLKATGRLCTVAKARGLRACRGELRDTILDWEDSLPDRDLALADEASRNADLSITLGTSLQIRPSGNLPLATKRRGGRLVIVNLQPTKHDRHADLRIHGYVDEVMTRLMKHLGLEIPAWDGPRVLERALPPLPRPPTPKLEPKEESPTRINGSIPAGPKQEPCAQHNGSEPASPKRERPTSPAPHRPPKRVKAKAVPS

SIRT2 [3] = molecular target: T3, SIRT2 (Homo sapiens, UniProt Q8IXJ6); settings: cited from earlier work
T3 sequence (Q8IXJ6 1-389): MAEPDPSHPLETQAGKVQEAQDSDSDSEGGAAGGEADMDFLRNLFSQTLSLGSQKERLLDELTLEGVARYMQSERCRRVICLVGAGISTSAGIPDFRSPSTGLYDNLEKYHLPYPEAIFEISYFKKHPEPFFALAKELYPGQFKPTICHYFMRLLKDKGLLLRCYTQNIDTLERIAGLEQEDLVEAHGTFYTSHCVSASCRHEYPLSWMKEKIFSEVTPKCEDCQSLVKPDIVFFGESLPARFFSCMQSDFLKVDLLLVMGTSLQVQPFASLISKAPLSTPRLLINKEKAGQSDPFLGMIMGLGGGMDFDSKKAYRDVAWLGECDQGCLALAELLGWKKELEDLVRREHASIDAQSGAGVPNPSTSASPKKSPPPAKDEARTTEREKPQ

HCMV [4] = assay: Yield of infectious HCMV from drug-treated infected MRC5 fibroblasts; assay type: cell-based, human cytomegalovirus; settings: FIG. 5
SIRT1 [5] = molecular target: T1, SIRT1; settings: n = 2; cited from earlier work
Sirt5 = molecular target: T4, Sirt5 (Homo sapiens, UniProt Q9NXA8); settings: cited from earlier work
T4 sequence (Q9NXA8 37-310): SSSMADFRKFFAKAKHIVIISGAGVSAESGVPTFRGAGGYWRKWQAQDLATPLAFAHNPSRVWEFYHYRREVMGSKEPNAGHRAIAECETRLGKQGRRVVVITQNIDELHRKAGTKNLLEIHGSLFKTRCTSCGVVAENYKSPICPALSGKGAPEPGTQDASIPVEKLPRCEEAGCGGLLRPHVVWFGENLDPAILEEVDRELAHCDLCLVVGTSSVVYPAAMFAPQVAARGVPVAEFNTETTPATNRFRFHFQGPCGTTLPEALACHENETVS

SIRT2 [6] = molecular target: T3, SIRT2; settings: cited from earlier work; for Inhibition (at 60 μM ± SE (%)) SIRT2: n = 2
HCMV pUL99 = assay: Late viral pUL99 expression and cytopathic effect in HCMV infected MRC5 cells; assay type: cell-based, human cytomegalovirus; settings: 10 μM; data not shown
[7] = test system: Influenza A (WSN/33/A, PR8); assay type: cell-based, influenza A virus
HCMV [8] = assay type: cell-based, human cytomegalovirus

Sequence of Hst2 (P53686 whole entry): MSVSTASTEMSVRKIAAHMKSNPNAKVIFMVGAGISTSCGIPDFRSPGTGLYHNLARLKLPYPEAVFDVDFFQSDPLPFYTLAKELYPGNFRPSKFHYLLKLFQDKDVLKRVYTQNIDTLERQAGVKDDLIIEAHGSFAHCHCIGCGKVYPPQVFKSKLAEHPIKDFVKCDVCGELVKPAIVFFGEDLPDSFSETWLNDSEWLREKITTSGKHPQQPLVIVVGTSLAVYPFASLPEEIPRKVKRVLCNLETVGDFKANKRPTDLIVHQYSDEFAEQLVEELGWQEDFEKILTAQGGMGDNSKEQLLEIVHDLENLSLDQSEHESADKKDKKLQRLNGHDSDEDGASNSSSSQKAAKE

SMILES: CC(C)CCCCCCCCC[C@@H]1CC(=O)NC(CCC(=O)O)C(=O)N[C@@H](CC(C)C)C(=O)N[C@H](CC(C)C)C(=O)N[C@@H](C(C)C)C(=O)N[C@@H](CC(=O)O)C(=O)N[C@H](CC(C)C)C(=O)N[C@@H](CC(C)C)C(=O)O1 (stereo partly drawn) [Surfactin, surfactin] (HELM PEPTIDE1{[O=C(O)CCC(N[*:1])C(=O)[*:2]].L.[dL].V.D.[dL].L}|CHEM1{[CC(C)CCCCCCCCC[C@H](CC(=O)[*:1])O[*:2]]}$PEPTIDE1,CHEM1,1:R1-1:R1|PEPTIDE1,CHEM1,7:R2-1:R2$$$V2.0)
- IC50 (Hst2): > 700 µM
- IC50 (SIRT1 [1]): > 600 µM

SMILES: C(=Nc1ccc(N=Cc2ccccc2)cc1)c1ccccc1 [3a]
- inhibition at 200 μM ± SD, % (sirtuin): 35 ± 1.4%

SMILES: c1cnc2ocnc2c1 [Oxazolopyridine]
- EC1.5: The concentration to activate 1.5-fold (SIRT1 [2]): 0.09 µM

SMILES: O=C1OC2(c3ccc(O)cc3Oc3cc(O)ccc32)c2c1c(-c1ccccc1)c(-c1ccccc1)c(-c1ccccc1)c2-c1ccccc1 [CSC28]
- Sirt6 effect (Sirt6): activation
- Sirt2 effect (SIRT2 [3]): inhibition

SMILES: O=C(Nc1ccccc1-c1cn2c(CN3CCNCC3)csc2n1)c1cnc2ccccc2n1 [SRT1720]
- EC1.5: The concentration to activate 1.5-fold (SIRT1 [2]): 0.16 µM

SMILES: Oc1cccc(CNc2ccc(NCc3cccc(O)c3)cc2)c1 [4c]
- inhibition at 200 μM ± SD, % (sirtuin): 8 ± 0.4%

SMILES: O=C1CCc2c(ccc3ccccc23)O1 [Splitomycin]
- IC50 (Hst2): > 600 µM

SMILES: CN(C)CCCCC(=O)Nc1ccc(NC(=S)NC(=O)c2ccc(C(C)(C)C)cc2)cc1 [Tenovin 6]
- IC50 (Hst2): > 100 µM
- production of infectious HCMV (HCMV [4]): blocked

SMILES: Cc1ccc2[nH]c3c(c2c1)CCCC3C(N)=O (stereo not drawn) [Indole 2]
- IC50 (Hst2): 14.5 ± 0.6 µM
- IC50 (SIRT1 [1]): 0.64 ± 0.06 µM

SMILES: c1ccc(CNc2ccc(NCc3ccccc3)cc2)cc1 [4a]
- inhibition at 200 μM ± SD, % (sirtuin): 21 ± 1.7%

SMILES: COc1cccc(C=Nc2ccc(N=Cc3cccc(OC)c3)cc2)c1 [3g]
- inhibition at 200 μM ± SD, % (sirtuin): 20 ± 1.2%

SMILES: O=c1[nH]c(=S)[nH]c(-c2ccccc2Br)c1Cc1c(O)ccc2ccccc12 [Compd 6vii]
- Inhibition (at 60 μM ± SE (%)) SIRT1 (SIRT1 [5]): 19.7 ± 1%

SMILES: O=S(=O)(c1cccc(C(F)(F)F)c1)N1c2ccccc2-n2cccc2C1c1cccnc1 (stereo not drawn) [CSC38]
- Sirt6 effect (Sirt6): activation
- Sirt5 effect (Sirt5): activation
- Sirt2 effect (SIRT2 [3]): inhibition

SMILES: O=c1[nH]c(=S)[nH]c(-c2cccc(Br)c2)c1Cc1c(O)ccc2ccccc12 [Compd 6viii]
- Inhibition (at 60 μM ± SE (%)) SIRT2 (SIRT2 [6]): 6.6 ± 3%
- Inhibition (at 60 μM ± SE (%)) SIRT1 (SIRT1 [5]): 4.8 ± 1%

SMILES: NC(=O)C1CCCc2c1[nH]c1ccc(Cl)cc21 (stereo not drawn) [EX-527]
- accumulation of late viral pUL99 protein (HCMV pUL99): increased

SMILES: O=C1C2C3c4ccccc4C(c4ccccc43)C2C(=O)N1c1ccc(OCc2ccccc2)cc1 (stereo not drawn) [CSC34]
- Sirt6 effect (Sirt6): activation
- Sirt2 effect (SIRT2 [3]): inhibition

SMILES: Oc1cccc(C=Nc2ccc(N=Cc3cccc(O)c3)cc2)c1 [3c]
- inhibition at 200 μM ± SD, % (sirtuin): 12 ± 0.9%

SMILES: Oc1ccc(C=Nc2ccc(N=Cc3ccc(O)cc3)cc2)cc1 [3d]
- inhibition at 200 μM ± SD, % (sirtuin): 22 ± 1.6%

SMILES: Oc1ccc(CNc2ccc(NCc3ccc(O)cc3)cc2)cc1 [4d]
- inhibition at 200 μM ± SD, % (sirtuin): 14 ± 0.5%

SMILES: COc1ccccc1C=Nc1ccc(N=Cc2ccccc2OC)cc1 [3f]
- inhibition at 200 μM ± SD, % (sirtuin): 13 ± 0.5%

SMILES: Oc1ccccc1CNc1ccc(NCc2ccccc2O)cc1 [4b]
- inhibition at 200 μM ± SD, % (sirtuin): 27 ± 2.4%

SMILES: Cc1cc(N2CCOCC2)nc2ccc(Cc3ccc4nc(N5CCOCC5)cc(C)c4c3)cc12 [CSC4]
- Sirt2 effect (SIRT2 [3]): inhibition

SMILES: O=c1[nH]c(=S)[nH]c(-c2ccc(I)cc2)c1Cc1c(O)ccc2ccccc12 [Compd 6v]
- Inhibition (at 60 μM ± SE (%)) SIRT2 (SIRT2 [6]): 7.7 ± 1%
- Inhibition (at 60 μM ± SE (%)) SIRT1 (SIRT1 [5]): 7.7 ± 1%

SMILES: O=c1[nH]c(=S)[nH]c(-c2ccc(C(F)(F)F)cc2)c1Cc1c(O)ccc2ccccc12 [Compd 6vi]
- Inhibition (at 60 μM ± SE (%)) SIRT2 (SIRT2 [6]): 6.7 ± 1%
- Inhibition (at 60 μM ± SE (%)) SIRT1 (SIRT1 [5]): 15.1 ± 1%

SMILES: CC(C(=O)Nc1cccc(/N=C/c2c(O)ccc3ccccc23)c1)c1ccccc1 (stereo not drawn) [Salermide]
- production of infectious Influenza A progeny [7]: inhibited
- inhibition of HCMV production by a factor of (HCMV [8]): about 5
- inhibition of the production of HCMV progeny by a factor of (HCMV [8]): ~80
- production of infectious HCMV (HCMV [4]): blocked

SMILES: O=c1[nH]c(=S)[nH]c(-c2cccc(Cl)c2)c1Cc1c(O)ccc2ccccc12 [Compd 6ix]
- Inhibition (at 60 μM ± SE (%)) SIRT2 (SIRT2 [6]): 7.6 ± 6%
- Inhibition (at 60 μM ± SE (%)) SIRT1 (SIRT1 [5]): 11.3 ± 1%

SMILES: C/C(=C1/C=C(c2ccc3ccccc3c2)OC1=O)c1ccc(C(C)C)cc1 [CSC9]
- Sirt5 effect (Sirt5): activation^c
- Sirt2 effect (SIRT2 [3]): inhibition

SMILES: Cc1ccc(C(=O)Nc2ccc(S(=O)(=O)O)c3cc(S(=O)(=O)O)cc(S(=O)(=O)O)c23)cc1NC(=O)c1cccc(NC(=O)Nc2cccc(C(=O)Nc3cc(C(=O)Nc4ccc(S(=O)(=O)O)c5cc(S(=O)(=O)O)cc(S(=O)(=O)O)c45)ccc3C)c2)c1 [Suramin, suramin]
- IC50 (Hst2): 240 ± 70 µM

SMILES: O=c1[nH]c(=S)[nH]c(-c2ccc(Cl)cc2)c1Cc1c(O)ccc2ccccc12 [Compd 6iv]
- Inhibition (at 60 μM ± SE (%)) SIRT2 (SIRT2 [6]): 20.1 ± 1%
- Inhibition (at 60 μM ± SE (%)) SIRT1 (SIRT1 [5]): 13.7 ± 1%

SMILES: O=S1(=O)C(c2ccccc2)C(N2CCCCC2)C1C1CC2c3ccccc3C1c1ccccc12 (stereo not drawn) [CSC33]
- Sirt6 effect (Sirt6): activation
- Sirt5 effect (Sirt5): activation

SMILES: Cc1ccc2c(c1)CCC1C2CCC2(C)C(OC(=O)CCc3ccccc3)CCC12 (stereo not drawn) [CSC8]
- Sirt2 effect (SIRT2 [3]): inhibition

SMILES: COc1cc(C(=O)Nc2ccccc2-c2cn3c(CN4CCNCC4)csc3n2)cc(OC)c1OC [SRT1460]
- EC1.5: The concentration to activate 1.5-fold (SIRT1 [2]): 2.9 µM

SMILES: O=c1[nH]c(=S)[nH]c(-c2ccc(Br)cc2)c1Cc1c(O)ccc2ccccc12 [Compd 6b]
- IC50 (SIRT2 [6]; determined for compounds with over 60% inhibition at 60 μM): > 90 µM

SMILES: CN1CC(C(=O)NC2(C)OC3(O)C4CCCN4C(=O)C(Cc4ccccc4)N3C2=O)C=C2c3cccc4[nH]cc(c34)CC21 (stereo not drawn) [CSC21]
- Sirt6 effect (Sirt6): inhibition
- Sirt5 effect (Sirt5): inhibition
- Sirt2 effect (SIRT2 [3]): inhibition

SMILES: c1cc2c(ccc3ncc[nH]c32)n1 [Pyrroloquinoxaline]
- activation at this concentration (SIRT1 [2]; 10 μM): *233% activation at this concentration
- EC1.5: The concentration to activate 1.5-fold (SIRT1 [2]): 10 µM

SMILES: Oc1ccccc1C=Nc1ccc(N=Cc2ccccc2O)cc1 [3b]
- inhibition at 200 μM ± SD, % (sirtuin): 56 ± 8.2%

SMILES: O=C1c2ccccc2C(=O)c2c(NCc3cc4c5c(ccc6c7ccc8c9c(cc(Nc%10cccc%11c%10C(=O)c%10ccccc%10C%11=O)c(c3c56)c97)-c3ccccc3C8=O)C(=O)c3ccccc3-4)cccc21 [CSC6]
- Sirt6 effect (Sirt6): inhibition
- Sirt2 effect (SIRT2 [3]): inhibition

SMILES: O=Cc1ccc2c(c1)C(=O)c1ccc3c4ccc5c6c(ccc(c7ccc-2c1c37)c64)-c1ccc(C(=O)O)cc1C5=O [CSC14]
- Sirt5 effect (Sirt5): inhibition
- Sirt2 effect (SIRT2 [3]): inhibition
